Data as given in US10238630B2, “Use of eribulin and poly (ADP ribose) polymerase (PARP) inhibitors as combination therapy for the treatment of cancer” (Eisai R&D Management Co., Ltd., priority 2014, dated 2019).
Entries after “also recorded” stand apart in the source; their conditions may differ. Where a name gives a salt, the structure may show the parent alone.

Tests used:
[1] = system: MDA-MB-468 human breast cancer xenografts; test: Antitumor activity against subcutaneous MDA-MB-468 human breast cancer xenografts in athymic mice; type: in vivo
Experimental: MDA-MB-468 human triple negative breast cancer cells are wild type for BRCA1 and 2 and PTEN null. Cells were maintained in monolayer cultures in RPMI-1640 growth medium supplemented with 10% fetal bovine serum at 37° C. in a 5% CO2 humidified incubator. On the day of inoculation, cells were harvested by trypsinization, washed, and resuspended in ice-cold PBS. Female immunodeficient athymic mice were inoculated subcutaneously near the right axillary area with MDA-MB-468 cells (5×10^6) in a 1:1 ratio (50 μL each) with matrigel in a volume of 0.1 mL in phosphate buffered saline using a 26-gauge needle. A total of 60 mice, approximately 8 weeks old were implanted with MDA-MB-468 cells.
E7449 and E7389 were evaluated as single agents and in combination for antitumor activity against MDA-MB-468 human breast cancer xenografts in athymic mice. The experiment consisted of a vehicle control group, an E7449 single agent group, two groups treated with single agent E7389 and 2 combination drug-treated groups (Table 4). Sixty mice were inoculated with MDA-MB-468 cells. On day 7 following implantation, tumor volumes were measured and mice were randomized into the 6 treatment groups based on tumor volume (average of 180 mm^3). Following randomization drug treatment was initiated. Each group was composed of 6 mice for a total of 36 mice on the first day of treatment. E7449 was formulated in 0.5% methyl cellulose and orally administered daily at 100 mg/kg based on body weight at 0.1 mL per 10 g. E7449 was administered once daily for 28 days (starting on Day 7) as a single agent or in combination. E7389 was formulated in saline and was intravenously administered once every 4 days, 3 times (Day 7, 11, and 15) at a dosage of 0.1 or 0.4 mg/kg as single agent or in combination with E7449, based on body weight at 0.1 mL per 10 g. The control group was treated with oral vehicle (0.5% methyl cellulose in water) daily and intravenous vehicle (saline) once every 4 days, 3 times. E7449 or vehicle was administered first and when dosing of all animals was complete, E7389 was administered to animals receiving the combination.
Drug treatment was initiated 7 days post tumor implantation and continued for 28 days. Animals whose tumor measurement reached […] at the longest axis or whose tumor became ulcerated were euthanized prior to study termination. The study was terminated on Day 52. Statistical analysis was performed on Days 35 and 52.
Statistical analysis of the vehicle group (A) versus the drug-treated groups (B, C, D, E, and F) was performed by a one way analysis of variance (ANOVA) for tumor volume followed by Dunnett's multiple comparisons test. The analysis was performed at vehicle endpoint on Day 35 of the study. […]

[2] = system: poly (ADP-ribose) (PAR) levels; test: Pharmacodynamic biomarker analysis of poly (ADP-ribose) (PAR) levels in triple negative breast cancer xenograft tumor lysates; type: in vivo
Experimental: PAR levels rebounded at 24 hours in all models. […] In the HCC1806 (wild type for BRCA and PTEN) tumor lysate, E7389 treatment alone increased PAR at 24 and 48 hours.

total Akt levels = test: Pharmacodynamic biomarker analysis of total Akt and PI3K pathway proteins in tumor lysates by reverse phase protein microarray (RPMA); type: in vivo
Experimental: Multiple proteins in the P13K pathway were assessed by reverse phase protein microarray (RPMA) in tumor lysates. Akt levels decreased in all models except MDA-MB-231 (wild type for BRCA1 and 2 and PTEN) following single agent and combination treatments. This effect is specific for Akt as no changes in total PI3K, Erk, or Src were observed. Phosphorylated Akt (S473 & T308) decreased by E7389 and combination treatment at 48 hours in MDA-MB-468 tumors. […] No significant effects of treatment were observed on phosphorylated Src (Y527) levels in any tumor models.

BR1282 = test: Antitumor effect in patient-derived xenograft (PDx) BR1282 of triple negative breast cancer in athymic mice; type: in vivo, human
BR1474 = test: Antitumor effect in patient-derived xenograft (PDx) BR1474 of triple negative breast cancer in athymic mice; type: in vivo, human
[3] = HCC1806 tumors, early time points

| SMILES | tumor re-growth following treatment ([1]; E7389 0.1 mg/kg IV Q4Dx3, single agent) | tumor re-growth following treatment ([1]; E7389 0.4 mg/kg IV Q4Dx3, single agent, up to Day 52) | antitumor effect (tumor volume) ([1]; E7389 0.1 and 0.4 mg/kg IV Q4Dx3, single agent) | PARP activity in tumor lysates ([2]; E7389 treatment alone) | PAR levels in tumor lysates ([2]; HCC1806 tumor lysate, E7389 alone, 24 and 48 hours) | phosphorylated Akt (S473 & T308) (total Akt levels; MDA-MB-468 tumors, 48 hours) | antitumor effect (tumor growth) (BR1282; E7389 0.3 mg/kg, single agent) | antitumor effect (tumor growth) (BR1282; E7389 single agent, 0.1 mg/kg (dose as read from the sentence)) | antitumor effect (tumor volume) (BR1474; E7389 0.3 mg/kg, single agent) | antitumor effect (tumor volume) ([1]; E7449 100 mg/kg PO QDx28, single agent, 100 mg/kg) | PARP inhibition / PAR levels in tumor lysates ([2]; 6 hours, MDA-MB-436, MDA-MB-468, MDA-MB-231 and HCC1806 tumor lysates) | PAR levels in tumor lysates ([2]; 24 hours, all four models) | phosphorylated Akt (S473 & T308) (total Akt levels; [3]) | phosphorylated Erk (T202/Y204) (total Akt levels; [3]) | antitumor effect (tumor growth) (BR1282; E7449 single agent) | sensitivity of the model among the three PDx models (BR1474; E7449 as a single agent) |
| --- | --- | --- | --- | --- | --- | --- | --- | --- | --- | --- | --- | --- | --- | --- | --- | --- |
| C=C1C[C@@H]2CC[C@@]34C[C@H]5OC6[C@@H](O[C@H]7CC[C@H](CC(=O)C[C@@H]8[C@@H](OC)[C@@H](C[C@H](O)CN)O[C@H]8C[C@H]8O[C@@H](CC[C@@H]1O2)C[C@@H](C)C8=C)O[C@@H]7[C@@H]6O3)[C@H]5O4 [E7389, 11, 15:18,21:24,28-triepoxy-7,9-ethano-12,15-methano-9H,15H-furo[3,2-i]furo[2′,3′:5,6]pyrano[4,3-b] [1,4]dioxacyclopentacosin-5(4H)-one, 2-[(2S)-3-amino-2-hydroxypropyl]hexacosahydro-3-methoxy-26-methyl-20,27-bis(methylene)-, (2R,3R,3aS,7R,8aS,9S,10aR,11S,12R,13aR,13bS,15S,18S,21S,24S,26R,28R,29aS)-methanesulfonate (salt)] | began re-growing within days of final E7389 dose | became tumor-free with no palpable tumors observed up to the date of study termination | Tumor regression | did not inhibit PARP activity | increased PAR | decreased | inhibited tumor growth to a similar degree | had no impact on the tumor growth | enhanced antitumor activity |  |  |  |  |  |  |  |
| O=c1[nH]nc2c3c(cccc13)N=C(CN1Cc3ccccc3C1)N2 [E7449] |  |  |  |  |  |  |  |  |  | did not significantly inhibit tumor growth; also recorded: No antitumor activity | complete PARP inhibition | rebounded | Increased | Increased | had no impact on the tumor growth | most sensitive |
